From the OPERA property sets (Mansouri et al. 2018)
In brackets after ≈: the same amount, converted by molar mass.

Conditions: 20 °C

SMILES	solubility
CCCOC(C)=O	185 mM (≈ 18900 µg/mL)
C[C@H]1C[C@@H](OC(=O)c2ccccc2)CC(C)(C)N1	12 mM (≈ 2960 µg/mL)
CC(Cl)C(Cl)(Cl)C(O)O (stereo not drawn)	136 mM (≈ 26300 µg/mL)
CC(=O)OC(C)C	303 mM (≈ 30900 µg/mL)
CCOC(=O)CCCCC(=O)OCC	20.9 mM (≈ 4230 µg/mL)
F[P-](F)(F)(F)(F)F.N#[N+]c1ccccc1	36 mM
COC(C)=O	3280 mM (≈ 243000 µg/mL)

Same assay, conditions: 25 °C

SMILES	solubility
Cc1cccc(S(N)(=O)=O)c1	45.6 mM (≈ 7810 µg/mL)
O=C1c2ccccc2C(=O)c2cc(O)ccc21	0.00491 mM (≈ 1.1 µg/mL)
O=C(O)/C=C/c1ccc2c(c1)OCO2	0.141 mM (≈ 27 µg/mL)
O=C(O)C=Cc1cccc(Br)c1	2.31 mM (≈ 525 µg/mL)
O=C(O)c1ccccc1Br	9.23 mM (≈ 1860 µg/mL)
COc1ccc(C=CC(=O)O)cc1	5.15 mM (≈ 918 µg/mL)
CC(C)c1ccc(C(=O)O)cc1	0.92 mM (≈ 151 µg/mL)
CCCCCCCCC(C(=O)O)C(=O)O	1.2 mM (≈ 260 µg/mL)
CC(=O)Nc1ccc([N+](=O)[O-])cc1	12.2 mM (≈ 2200 µg/mL)
O=C(O)c1ccc(I)cc1	0.109 mM (≈ 27 µg/mL)
O=C1c2ccc(O)cc2C(=O)c2ccc(O)cc21	0.00129 mM (≈ 0.31 µg/mL)
